From BigSolDB 2.1

OC(Cn1cncn1)(Cn1cncn1)c1ccc(F)cc1F
solubility (mole fraction)
Conditions	in 1,4-dioxane	in THF	in chloroform	in ethanol	in methanol	in n-butanol	in n-propanol
298.15 K	0.0124	0.0121	0.0135	0.011	0.0141	0.0058	0.0115
303.15 K	0.0165	0.0155	0.0136	0.0147	0.0193	0.0066	0.0127
308.15 K	0.0194	0.0197	0.0139	0.017	0.0286	0.008	0.0148
313.15 K	0.0219	0.0225	0.0148	0.0231	0.0422	0.0102	0.0175
318.15 K	0.0257	0.0273	0.016	0.0284	0.06	0.0132	0.021
323.15 K	0.0304	0.0331	0.0181	0.0354	0.088	0.016	0.0278
